pIC50: −log10 of the molar value.
Columns and labels:
IGF 3P = molecular target: T1, IGF 3P (Homo sapiens, UniProt P08069); test: IGF1R kinase assay (LCCA), IGF 3P; assay type: biochemical; settings: IGF1R kinase LCCA assay
T1 construct: human IGF1R kinase domain residues M954-C1367; made in house; host or cells: baculovirus expression (insect cells)
Procedure: (§1) Kinase activity and compound inhibition are investigated using one or more of the three assay formats described below. The ATP concentrations for each assay are selected to be close to the Michaelis-Menten constant (KM) for each individual kinase. Dose-response experiments are performed at 10 different inhibitor concentrations in a 384-well plate format. […] Y=Min+(Max−Min)/(1+(X/IC50)^H) Equation (2)
(§2) IGF1R kinase biochemical activity was assessed using a Luciferase-Coupled Chemiluminescent Kinase assay (LCCA) format. Kinase activity was measured as the percent ATP remaining following the kinase reaction. Remaining ATP was detected by luciferase-luciferin-coupled chemiluminescence. Specifically, the reaction was initiated by mixing test compounds, 3 μM ATP, 4 μM poly EY peptide and 4 nM IGF1R (baculovirus expressed human IGF1R kinase domain residues M954-C1367) in a 20 uL assay buffer (20 mM Tris-HCL pH7.5, 10 mM MgCl2, 0.02% Triton X-100, 1 mM DTT, 2 mM MnCl2). The mixture is incubated at ambient temperature for 2 hours after which 20 uL luciferase-luciferin mix is added and the chemiluminescent signal read using a Wallac Victor^2 reader.

[1] = molecular target: T2, (Homo sapiens, UniProt P08069); test: IGF1R kinase assay (LCCA), IGF 0P; assay type: biochemical; settings: IGF1R kinase LCCA assay
T2 construct: human IGF1R kinase domain residues M954-C1367; made in house; host or cells: baculovirus expression (insect cells)
Procedure: as §1, §2

T2 sequence (P08069 954-1367): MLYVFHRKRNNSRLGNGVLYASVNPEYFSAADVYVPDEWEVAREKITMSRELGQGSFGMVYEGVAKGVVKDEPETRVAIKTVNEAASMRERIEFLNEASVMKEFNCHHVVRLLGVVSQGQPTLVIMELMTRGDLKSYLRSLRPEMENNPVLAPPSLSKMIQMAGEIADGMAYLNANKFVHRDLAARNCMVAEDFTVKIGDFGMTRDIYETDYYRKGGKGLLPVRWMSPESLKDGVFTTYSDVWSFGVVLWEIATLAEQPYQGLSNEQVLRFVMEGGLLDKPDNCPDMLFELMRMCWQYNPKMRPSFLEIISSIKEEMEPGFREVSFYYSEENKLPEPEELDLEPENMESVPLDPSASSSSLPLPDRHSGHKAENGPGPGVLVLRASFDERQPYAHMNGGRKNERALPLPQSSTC
T1 sequence (P08069 954-1367): as above

Compound	pIC50 (IGF 3P)	pIC50 [1]	pIC50 (IGF 3P; IGF 3P)	pIC50 ([1]; IGF 0P)
CC(C)c1cc(Nc2nc(NCc3cc(-c4ccccc4)no3)ncc2Br)[nH]n1 [Example 10]	6.30 to 7.30	6.30 to 7.30		
c1ccc(-c2cc(CNc3nc(Nc4cc(C5CC5)n[nH]4)cc(N4CCCC4)n3)on2)cc1 [Example 12]	6.30 to 7.30	6.30 to 7.30		
Brc1cnc(NCc2cc(-c3ccccc3)no2)nc1Nc1cc(C2CC2)[nH]n1 [Example 14]	6.30 to 7.30	6.30 to 7.30		
CC(C)(C)c1cc(Nc2nc(NCc3cc(-c4ccccc4)no3)ncc2Br)n[nH]1 [Example 16]	5.30 to 6.30	6.30 to 7.30		
Cc1cc(Nc2nc(NCc3cc(-c4ccccc4)no3)ncc2Br)[nH]n1 [Example 19]	5.30 to 6.30	5.30 to 6.30		
Brc1cnc(NC2CCc3ccccc32)nc1Nc1cc(C2CC2)[nH]n1 (stereo not drawn) [Example 25]	5.30 to 6.30	6.30 to 7.30		
Brc1cnc(NC2CCCc3ccccc32)nc1Nc1cc(C2CC2)[nH]n1 (stereo not drawn) [Example 34]	5.30 to 6.30	6.30 to 7.30		
CN(C)C(=O)Oc1cccc(Nc2ncc(Br)c(Nc3cc(C4CC4)n[nH]3)n2)c1 [Example 35]	6.30 to 7.30	6.30 to 7.30		
CN1CCN(C(=O)Cc2ccc(Nc3ncc(Br)c(Nc4cc(C5CC5)n[nH]4)n3)cc2)CC1 [Example 37]	6.30 to 7.30	5.30 to 6.30		
CCN(CC)CCCNc1cc(Nc2cc(C3CC3)[nH]n2)nc(NCc2cc(-c3ccccc3)no2)n1 [Example 42]	> 7.30	6.30 to 7.30		
CCN(CC)CCNc1cc(Nc2cc(C3CC3)[nH]n2)nc(NCc2cc(-c3ccccc3)no2)n1 [Example 45]	> 7.30	> 7.30		
Cc1cc(Nc2cc(C3CC3)n[nH]2)nc(Nc2ccc3cc(C(=O)NCCN4CCCC4)ccc3c2)n1 [Example 49]	> 7.30	6.30 to 7.30		
Cc1cc(Nc2cc(C3CC3)[nH]n2)nc(NCc2cc(C(C)C)no2)n1 [Example 50]	> 7.30	5.30 to 6.30		
Cc1cc(Nc2cc(C3CC3)n[nH]2)nc(Nc2ccc(CCC(=O)NCCCN3CCCCC3)cc2)n1 [Example 51]	> 7.30	< 5.30		
COc1cc(Nc2ncc(Br)c(Nc3cc(C)on3)n2)cc(OC)c1 [Example 53]	> 7.30	6.30 to 7.30		
CC(=O)Nc1ccc(Cl)c(Nc2ncc(Br)c(Nc3cc(C)on3)n2)c1 [Example 57]	> 7.30	5.30 to 6.30		
CCN(CC)CCNC(=O)CCc1ccc(Nc2ncc(Br)c(Nc3cc(C)on3)n2)cc1 [Example 58]			> 7.30	5.30 to 6.30
CCN(CC)CCNC(=O)c1ccc2cc(Nc3nc(C)cc(Nc4cc(C5CC5)n[nH]4)n3)ccc2c1 [Example 59]	> 7.30	6.30 to 7.30		
CC(C)c1cc(CNc2ncc(Br)c(Nc3cc(C4CC4)[nH]n3)n2)on1 [Example 65]	> 7.30	5.30 to 6.30		
CCN(CC)CCCNc1nc(Nc2ccccc2Cl)nc(Nc2cc(C3CC3)n[nH]2)c1Cl [Example 66]	> 7.30	6.30 to 7.30		
Brc1cc(CNc2ncc(Br)c(Nc3cc(C4CC4)[nH]n3)n2)on1 [Example 72]	6.30 to 7.30	5.30 to 6.30		
CN(C)C(=O)CCc1ccc(Nc2ncc(Br)c(Nc3cc(C4CC4)n[nH]3)n2)cc1 [Example 76]	6.30 to 7.30	6.30 to 7.30		
Brc1cnc(Nc2ccc(N3CCOCC3)cc2)nc1Nc1cc(-c2ccco2)[nH]n1 [Example 80]	6.30 to 7.30	6.30 to 7.30		
Brc1cnc(Nc2ccc(N3CCOCC3)nc2)nc1Nc1cc(C2CC2)n[nH]1 [Example 81]	6.30 to 7.30	5.30 to 6.30		
Cc1cc(Nc2cc(C3CC3)[nH]n2)nc(NCc2cc(C3CCCCC3)no2)n1 [Example 82]	6.30 to 7.30	6.30 to 7.30		
Brc1ccccc1Nc1ncc(Br)c(Nc2cc(C3CC3)n[nH]2)n1 [Example 83]	6.30 to 7.30	6.30 to 7.30		
FC(F)(F)Oc1ccccc1Nc1ncc(Br)c(Nc2cc(C3CC3)n[nH]2)n1 [Example 84]	6.30 to 7.30	6.30 to 7.30		

Source: US8211929B2, “Pyrimidine derivatives as kinase modulators and method of use” (Exelixis, Inc., priority 2004, dated 2012)
